Laboratory results published in patent US20070117864A1, “Composition for preventing and treating hepatoma” (Tokyo University of Agr. & Tech. TLO Co., Ltd., priority 2003, published 2007).

System: AH109A cells
Assay: proliferative activity of hepatoma cells by [3H]thymidine incorporation
Format: cell-based, rat
Protocol: The proliferative activity of the AH109A cells was evaluated by measuring the incorporation of [^3H]thymidine (20 Ci/mmol, New England Nuclear, Boston, USA) into acid-insoluble fraction, namely, DNA [Yagasaki K., Tanabe T., Ishihara K., and Funabiki R., (1992) Modulation of the proliferation of cultured hepatoma cells by urea cycle-related amino acids. In: Murakami, H., Shirahata S., and Tachibanana H., (ed.) Animal Cell Technology: Basic and Applied Aspects. Vol. 4 (pp. 257-263). Kluwer Academic Publisher, Dordrecht/Boston/London]. […]
The plate was washed twice with 400 μl of 10% TCA; the wash solution was then recovered in Maruemu tubes, and was again subjected to centrifugally separation for 5 minutes at 3000 rpm (1500×g), 4° C., and then solubilized in 0.2N NaOH in 0.1% SDS. was added to the 48-well plate and the cells remaining in the Maruemu tubes at the respective rates of 150 μl and 50 μl, and these were allowed to stand for 30 minutes inside an incubator at 37° C., to dissolve the cells completely. […] 5 ml of an NT scintillator (700 ml of toluene, 300 ml of nonion, 4 g of DPO) was added, and 150 μl of 1N HCl was further added thereto, and it was confirmed that the liquid of the preparation thoroughly shaken had become transparent; then, the radioactivity of the preparation was measured with a liquid scintillation spectrophotometer (LS6500; Beckman, Fullerton, Calif., USA). […]

## O=C1OCC(Cc2cccc(O)c2)C1Cc1cccc(O)c1 (centres unmarked) [Enterolactone, enterolactone]
ENL 50 μM, in vitro
  proliferation of AH109A cells: almost completely suppressed
In vitro comparison
  inhibitory effect on proliferation, AH109A cells compared with normal M-cells: stronger inhibitory effect against AH109A cells than normal M-cells
